From patent US6686390B2, “Compounds having antiinflamatory activity: process for their preparation and pharmaceutical compositions containing them” (Dr. Reddy's Laboratories Limited, priority 2000, dated 2004)

Work on `CSc1ccc(C2=C(c3ccc(C(F)(F)F)cc3)C(=O)OC2)cc1C` [Example 16, 4-(3-Methyl-4-methylsulfanylphenyl)-3-(4-trifluoromethylphenyl)-2,5-dihydro-2-furanone] yielded a melting point of 140 to 143 °C. With `CSc1ccc(C2=C(c3ccc(F)cc3)C(=O)OC2)cc1C` [Example 7, 4-(3-Methyl-4-methylsulfanylphenyl)-3-(4-fluorophenyl)-2,5-dihydro-2-furanone] the melting point was 126 to 130 °C. In the case of `CSc1ccc(C2=C(c3ccc(CC(C)C)cc3)C(=O)OC2)c(F)c1` [Example 35, 4-(2-Fluoro-4-methylsulfanylphenyl)-3-(4-isobutylphenyl)-2,5-dihydro-2-furanone], the melting point is reported as 92 to 94 °C. With `CSc1ccc(C2=C(c3ccc(SC)c(F)c3)COC2=O)cc1` [Example 24, 4-(4-Methylsulfanyl-3-fluorophenyl)-3-(4-methylsulfanylphenyl)-2,5-dihydro-2-furanone] the melting point was 161 to 162 °C. Molecule `CS(=O)(=O)c1ccc(C2=C(c3ccccc3)C(=O)N(c3ccc(F)cc3)C2=O)c(F)c1` [Example 98, 3-(2-Fluoro-4-methylsulfonylphenyl)-1-(4-fluorophenyl)-4-phenyl-2,5-dihydro-1H-2,5-azoledione] has a melting point of 198 to 200 °C. Molecule `CC1(C)OC(=O)C(c2ccc(F)cc2)=C1c1ccc(S(C)(=O)=O)c(CN2CCOCC2)c1` [Example 67, 3-(4-Fluorophenyl)-5,5-dimethyl-4-(4-methylsulfonyl-3-morpholinomethylphenyl)-2,5-dihydro-2-furanone] has a melting point of 127 to 130 °C. In the case of `COc1ccc(C2=C(c3ccc(SC)c(F)c3)COC2=O)cc1` [Example 38, 4-(4-Methylsulfanyl-3-fluorophenyl)-3-(4-methoxyphenyl)-2,5-dihydro-2-furanone], the melting point is reported as 122 to 124 °C. Molecule `CSc1ccc(C2=C(c3ccc(F)c(F)c3)C(=O)OC2)cc1Cl` [Example 22, 4-(4-Methylsulfanyl-3-chlorophenyl)-3-(3,4-difluorophenyl)-2,5-dihydro-2-furanone] has a melting point of 151 to 152 °C. For `CSc1ccc(C2=C(c3ccc(SC)c(Cl)c3)COC2=O)cc1` [Example 21, 3-(4-Methylsulfanylphenyl)-4-(3-chloro-4-methylsulfanylphenyl)-2,5-dihydro-2-furanone], the melting point was 157 to 158 °C. With `COc1cc(C2=C(c3ccccc3)C(=O)OC2)ccc1SC` [Example 14, 3-Phenyl-4-(3-methoxy-4-methylsulfanylphenyl)-2,5-dihydro-2-furanone] the melting point was 142 to 144 °C. In the case of `CSc1ccc(C2=C(c3ccccc3)C(=O)OC2)c(F)c1` [Example 18, 4-(2-Fluoro-4-methylsulfanylphenyl)-3-phenyl-2,5-dihydro-2-furanone], the melting point is reported as 145 to 147 °C. `CSc1ccc(C2=C(c3ccc(CC(C)C)cc3)C(=O)OC2)cc1C` [Example 11, 4-(3-Methyl-4-methylsulfanylphenyl)-3-(4-isobutylphenyl)-2,5-dihydro-2-furanone] showed a melting point of 146 to 149 °C. Molecule `CS(=O)(=O)c1ccc(C2=C(c3cccc4ccccc34)C(=O)OC2)c(F)c1` [Example 54, 4-(2-Fluoro-4-methylsulfonylphenyl)-3-(1-naphthyl)-2,5-dihydro-2-furanone] has a melting point of 145 to 148 °C. With `CSc1ccc(C2=C(c3ccccc3)C(=O)OC2)cc1F` [Example 23, 4-(4-Methylsulfanyl-3-fluorophenyl)-3-phenyl-2,5-dihydro-2-furanone] the melting point was 145 to 146 °C. Molecule `COOSc1ccc(C2=C(c3ccc(C)cc3)C(=O)OC2)cc1Cl` [Example 29] has a melting point of 164 to 166 °C. `CSc1ccc(C2=C(c3ccc(C)cc3)C(=O)OC2)cc1Cl` [Example 26, 4-(4-Methylsulfanyl-3-chlorophenyl)-3-(4-methylphenyl)-2,5-dihydro-2-furanone] showed a melting point of 147 to 149 °C. Molecule `COc1ccc(C2=C(c3ccc(SC)c(C)c3)COC2=O)cc1` [Example 12, 4-(3-Methyl-4-methylsulfanylphenyl)-3-(4-methoxyphenyl)-2,5-dihydro-2-furanone] has a melting point of 147 to 150 °C. `CSc1ccc(C2=C(c3ccccc3)C(=O)OC2)cc1C` [Example 5, 4-(3-Methyl-4-methylsulfanylphenyl)-3-phenyl-2,5-dihydro-2-furanone] showed a melting point of 150 to 153 °C. `CSc1ccc(C2=C(c3ccc(C)cc3)C(=O)OC2)cc1C` [Example 8, 4-(3-Methyl-4-methylsulfanylphenyl)-3-(4-methylphenyl)-2,5-dihydro-2-furanone] gave a melting point of 144 to 147 °C. For `CSc1ccc(C2=C(c3ccc(C)cc3)C(=O)OC2)cc1F` [Example 27, 4-(4-Methylsulfanyl-3-fluorophenyl)-3-(4-methylphenyl)-2,5-dihydro-2-furanone], the melting point was 159 to 160 °C. `CSc1ccc(C2=C(c3ccccc3)C(=O)OC2)cc1Cl` [Example 20, 4-(4-Methylsulfanyl-3-chlorophenyl)-3-phenyl-2,5-dihydro-2-furanone] gave a melting point of 151 to 152 °C. With `CSc1ccc(C2=C(c3ccc(F)cc3)C(=O)OC2)c(F)c1` [Example 42, 4-(2-Fluoro-4-methylsulfanylphenyl)-3-(4-fluorophenyl)-2,5-dihydro-2-furanone] the melting point was 118 °C. For `CSc1ccc(C2=C(c3ccc(F)c(F)c3)C(=O)OC2)cc1C` [Example 3, 4-(3-Methyl-4-methylsulfanylphenyl)-3-(3,4-difluorophenyl)-2,5-dihydro-2-furanone], the melting point was 150 to 153 °C.
